Measured values reported in patent US20230085307A1, “PYRIDAZINONE COMPOUND AND HERBICIDE” (NISSAN CHEMICAL CORPORATION, priority 2019, published 2023).

Columns and labels:
barnyard grass [1] = experiment: Test Example 3: herbicidal effect by foliage application, Wagner pot (Table 18, symbol H); assay type: in vivo, barnyard grass (Echinochloa crus-galli)
Method in brief: (§1)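 Plants were sown in alluvial soil held under 0.1–0.5 cm standing water and grown 14 days in a greenhouse at 25–30 °C. An emulsifiable formulation, water-diluted to the set dose, was then sprayed onto the foliage, and effects were scored three weeks later using previously defined criteria.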

Chinese sprangletop = experiment: Test Example 3: herbicidal effect by foliage application, Wagner pot (Table 18, symbol D); assay type: in vivo, chinese sprangletop (Leptochloa chinensis)
Method in brief: as §1

rice flat sedge = experiment: Test Example 3: herbicidal effect by foliage application, Wagner pot (Table 18, symbol E); assay type: in vivo, rice flat sedge (Cyperus iria)
Method in brief: as §1

southern crabgrass [2] = experiment: Test Example 4: herbicidal effect by soil treatment (Table 19, symbol F); assay type: in vivo, southern crabgrass (Digitaria ciliaris)
Method in brief: (§2)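 Pre-emergence style soil spray: seeds under ~1.5 cm sterilized diluvial soil received a uniform coat of emulsion diluted to the predetermined herbicide amount. Greenhouse 25–30° C; readout at week three on previously defined criteria.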

green foxtail [3] = experiment: Test Example 4: herbicidal effect by soil treatment (Table 19, symbol G); assay type: in vivo, green foxtail (Setaria viridis)
Method in brief: as §2

barnyard grass [4] = experiment: Test Example 4: herbicidal effect by soil treatment (Table 19, symbol H); assay type: in vivo, barnyard grass (Echinochloa crus-galli)
Method in brief: as §2

wild oat [5] = experiment: Test Example 4: herbicidal effect by soil treatment (Table 19, symbol I); assay type: in vivo, wild oat (Avena fatua)
Method in brief: as §2

blackgrass [6] = experiment: Test Example 4: herbicidal effect by soil treatment (Table 19, symbol J); assay type: in vivo, blackgrass (Alopecurus myosuroides)
Method in brief: as §2

Italian ryegrass [7] = experiment: Test Example 4: herbicidal effect by soil treatment (Table 19, symbol K); assay type: in vivo, Italian ryegrass (Lolium multiflorum)
Method in brief: as §2

windgrass [8] = experiment: Test Example 4: herbicidal effect by soil treatment (Table 19, symbol L); assay type: in vivo, windgrass (Apera spica-venti)
Method in brief: as §2

velvetleaf [9] = experiment: Test Example 4: herbicidal effect by soil treatment (Table 19, symbol M); assay type: in vivo, velvetleaf (Abutilon theophrasti)
Method in brief: as §2

redroot pigweed [10] = experiment: Test Example 4: herbicidal effect by soil treatment (Table 19, symbol N); assay type: in vivo, redroot pigweed (Amaranthus retroflexus)
Method in brief: as §2

lambsquarters [11] = experiment: Test Example 4: herbicidal effect by soil treatment (Table 19, symbol O); assay type: in vivo, lambsquarters (Chenopodium album)
Method in brief: as §2

chickweed [12] = experiment: Test Example 4: herbicidal effect by soil treatment (Table 19, symbol P); assay type: in vivo, common chickweed (Stellaria media)
Method in brief: as §2

persian speedwell [13] = experiment: Test Example 4: herbicidal effect by soil treatment (Table 19, symbol R); assay type: in vivo, Persian speedwell (Veronica persica)
Method in brief: as §2

southern crabgrass [14] = experiment: Test Example 5: herbicidal effect by foliage application, plastic box (Table 20, symbol F); assay type: in vivo, southern crabgrass (Digitaria ciliaris); settings: foliage application, evaluated three weeks after application
Method in brief: (§3)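 Plants were sown into sterilized diluvial soil under about 1.5 cm cover and kept in a greenhouse at 25° C. to 30° C. Fourteen days on, foliage received an even spray of the diluted emulsion. Herbicidal or crop effect was judged three weeks afterwards.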

green foxtail [15] = experiment: Test Example 5: herbicidal effect by foliage application, plastic box (Table 20, symbol G); assay type: in vivo, green foxtail (Setaria viridis); settings: foliage application, evaluated three weeks after application
Method in brief: as §3

barnyard grass [16] = experiment: Test Example 5: herbicidal effect by foliage application, plastic box (Table 20, symbol H); assay type: in vivo, barnyard grass (Echinochloa crus-galli); settings: foliage application, evaluated three weeks after application
Method in brief: as §3

wild oat [17] = experiment: Test Example 5: herbicidal effect by foliage application, plastic box (Table 20, symbol I); assay type: in vivo, wild oat (Avena fatua); settings: foliage application, evaluated three weeks after application
Method in brief: as §3

blackgrass [18] = experiment: Test Example 5: herbicidal effect by foliage application, plastic box (Table 20, symbol J); assay type: in vivo, blackgrass (Alopecurus myosuroides); settings: foliage application, evaluated three weeks after application
Method in brief: as §3

Italian ryegrass [19] = experiment: Test Example 5: herbicidal effect by foliage application, plastic box (Table 20, symbol K); assay type: in vivo, Italian ryegrass (Lolium multiflorum); settings: foliage application, evaluated three weeks after application
Method in brief: as §3

windgrass [20] = experiment: Test Example 5: herbicidal effect by foliage application, plastic box (Table 20, symbol L); assay type: in vivo, windgrass (Apera spica-venti); settings: foliage application, evaluated three weeks after application
Method in brief: as §3

velvetleaf [21] = experiment: Test Example 5: herbicidal effect by foliage application, plastic box (Table 20, symbol M); assay type: in vivo, velvetleaf (Abutilon theophrasti); settings: foliage application, evaluated three weeks after application
Method in brief: as §3

redroot pigweed [22] = experiment: Test Example 5: herbicidal effect by foliage application, plastic box (Table 20, symbol N); assay type: in vivo, redroot pigweed (Amaranthus retroflexus); settings: foliage application, evaluated three weeks after application
Method in brief: as §3

lambsquarters [23] = experiment: Test Example 5: herbicidal effect by foliage application, plastic box (Table 20, symbol O); assay type: in vivo, lambsquarters (Chenopodium album); settings: foliage application, evaluated three weeks after application
Method in brief: as §3

chickweed [24] = experiment: Test Example 5: herbicidal effect by foliage application, plastic box (Table 20, symbol P); assay type: in vivo, common chickweed (Stellaria media); settings: foliage application, evaluated three weeks after application
Method in brief: as §3

persian speedwell [25] = experiment: Test Example 5: herbicidal effect by foliage application, plastic box (Table 20, symbol R); assay type: in vivo, Persian speedwell (Veronica persica); settings: foliage application, evaluated three weeks after application
Method in brief: as §3

[26] = amount of applied herbicide 221 g/ha
[27] = amount of applied herbicide 320 g/ha

In the case of `Cc1ccc2sc(-c3ccc(C#N)cc3)c(-c3c(O)c(C)nn(C)c3=O)c2c1` [2-146], the “herbicidal effect on H: barnyard grass” value (barnyard grass [1]; [26]) is reported as 4 (Herbicidal rate of 70% or more and less than 90%), the “herbicidal effect on D: Chinese sprangletop” value (Chinese sprangletop; [26]) is reported as 0 (Herbicidal rate of 5% or less (almost no effect)) and the “herbicidal effect on E: rice flat sedge” value (rice flat sedge; [26]) is reported as 3 (Herbicidal rate of 40% or more and less than 70%). For the same molecule, the “F: southern crabgrass, herbicidal effect rating” value (southern crabgrass [2]; [26]) was 0 (Herbicidal rate of 5% or less (almost no effect)), the “G: green foxtail, herbicidal effect rating” value (green foxtail [3]; [26]) was 0 (Herbicidal rate of 5% or less (almost no effect)) and the “H: barnyard grass, herbicidal effect rating” value (barnyard grass [4]; [26]) was 0 (Herbicidal rate of 5% or less (almost no effect)). For the same molecule, the “I: wild oat, herbicidal effect rating” value (wild oat [5]; [26]) was 0 (Herbicidal rate of 5% or less (almost no effect)), the “J: blackgrass, herbicidal effect rating” value (blackgrass [6]; [26]) was 0 (Herbicidal rate of 5% or less (almost no effect)) and the “K: Italian ryegrass, herbicidal effect rating” value (Italian ryegrass [7]; [26]) was 0 (Herbicidal rate of 5% or less (almost no effect)). The “L: windgrass, herbicidal effect rating” value (windgrass [8]; [26]) was 0 (Herbicidal rate of 5% or less (almost no effect)), the “M: velvetleaf, herbicidal effect rating” value (velvetleaf [9]; [26]) was 0 (Herbicidal rate of 5% or less (almost no effect)) and the “N: redroot pigweed, herbicidal effect rating” value (redroot pigweed [10]; [26]) was 4 (Herbicidal rate of 70% or more and less than 90%). For the same molecule, the “O: lambsquarters, herbicidal effect rating” value (lambsquarters [11]; [26]) was 0 (Herbicidal rate of 5% or less (almost no effect)), the “P: chickweed, herbicidal effect rating” value (chickweed [12]; [26]) was 5 (Herbicidal rate of 90% or more (almost completely withered)) and the “R: persian speedwell, herbicidal effect rating” value (persian speedwell [13]; [26]) was 5 (Herbicidal rate of 90% or more (almost completely withered)). The “herbicidal effect on F: southern crabgrass (criteria 0-5)” value (southern crabgrass [14]; 221 g/ha) was 0 (Herbicidal rate of 5% or less (almost no effect)), the “herbicidal effect on G: green foxtail (criteria 0-5)” value (green foxtail [15]; 221 g/ha) was 4 (Herbicidal rate of 70% or more and less than 90%) and the “herbicidal effect on H: barnyard grass (criteria 0-5)” value (barnyard grass [16]; 221 g/ha) was 4 (Herbicidal rate of 70% or more and less than 90%). For the same molecule, the “herbicidal effect on I: wild oat (criteria 0-5)” value (wild oat [17]; 221 g/ha) was 3 (Herbicidal rate of 40% or more and less than 70%), the “herbicidal effect on J: blackgrass (criteria 0-5)” value (blackgrass [18]; 221 g/ha) was 3 (Herbicidal rate of 40% or more and less than 70%) and the “herbicidal effect on K: Italian ryegrass (criteria 0-5)” value (Italian ryegrass [19]; 221 g/ha) was 4 (Herbicidal rate of 70% or more and less than 90%). The “herbicidal effect on L: windgrass (criteria 0-5)” value (windgrass [20]; 221 g/ha) was 0 (Herbicidal rate of 5% or less (almost no effect)), the “herbicidal effect on M: velvetleaf (criteria 0-5)” value (velvetleaf [21]; 221 g/ha) was 2 (Herbicidal rate of 20% or more and less than 40%) and the “herbicidal effect on N: redroot pigweed (criteria 0-5)” value (redroot pigweed [22]; 221 g/ha) was 5 (Herbicidal rate of 90% or more (almost completely withered)). For the same molecule, the “herbicidal effect on O: lambsquarters (criteria 0-5)” value (lambsquarters [23]; 221 g/ha) was 3 (Herbicidal rate of 40% or more and less than 70%), the “herbicidal effect on P: chickweed (criteria 0-5)” value (chickweed [24]; 221 g/ha) was 5 (Herbicidal rate of 90% or more (almost completely withered)) and the “herbicidal effect on R: persian speedwell (criteria 0-5)” value (persian speedwell [25]; 221 g/ha) was 5 (Herbicidal rate of 90% or more (almost completely withered)).
`COc1ccccc1-c1sc2ccc(NC(=O)OC(C)(C)C)cc2c1-c1c(O)c(C)nn(C)c1=O` [2-181] was tested, and the “herbicidal effect on H: barnyard grass” value (barnyard grass [1]; [27]) was 2 (Herbicidal rate of 20% or more and less than 40%), the “herbicidal effect on D: Chinese sprangletop” value (Chinese sprangletop; [27]) was 3 (Herbicidal rate of 40% or more and less than 70%) and the “herbicidal effect on E: rice flat sedge” value (rice flat sedge; [27]) was 0 (Herbicidal rate of 5% or less (almost no effect)). The “F: southern crabgrass, herbicidal effect rating” value (southern crabgrass [2]; [27]) was 0 (Herbicidal rate of 5% or less (almost no effect)), the “G: green foxtail, herbicidal effect rating” value (green foxtail [3]; [27]) was 0 (Herbicidal rate of 5% or less (almost no effect)) and the “H: barnyard grass, herbicidal effect rating” value (barnyard grass [4]; [27]) was 0 (Herbicidal rate of 5% or less (almost no effect)). The “I: wild oat, herbicidal effect rating” value (wild oat [5]; [27]) was 0 (Herbicidal rate of 5% or less (almost no effect)), the “J: blackgrass, herbicidal effect rating” value (blackgrass [6]; [27]) was 0 (Herbicidal rate of 5% or less (almost no effect)) and the “K: Italian ryegrass, herbicidal effect rating” value (Italian ryegrass [7]; [27]) was 0 (Herbicidal rate of 5% or less (almost no effect)). The “L: windgrass, herbicidal effect rating” value (windgrass [8]; [27]) was 0 (Herbicidal rate of 5% or less (almost no effect)), the “M: velvetleaf, herbicidal effect rating” value (velvetleaf [9]; [27]) was 0 (Herbicidal rate of 5% or less (almost no effect)) and the “N: redroot pigweed, herbicidal effect rating” value (redroot pigweed [10]; [27]) was 3 (Herbicidal rate of 40% or more and less than 70%). For the same molecule, the “O: lambsquarters, herbicidal effect rating” value (lambsquarters [11]; [27]) was 4 (Herbicidal rate of 70% or more and less than 90%), the “P: chickweed, herbicidal effect rating” value (chickweed [12]; [27]) was 4 (Herbicidal rate of 70% or more and less than 90%) and the “R: persian speedwell, herbicidal effect rating” value (persian speedwell [13]; [27]) was 4 (Herbicidal rate of 70% or more and less than 90%). The “herbicidal effect on F: southern crabgrass (criteria 0-5)” value (southern crabgrass [14]; 320 g/ha) was 0 (Herbicidal rate of 5% or less (almost no effect)), the “herbicidal effect on G: green foxtail (criteria 0-5)” value (green foxtail [15]; 320 g/ha) was 1 (Herbicidal rate of 5% or more and less than 20%) and the “herbicidal effect on H: barnyard grass (criteria 0-5)” value (barnyard grass [16]; 320 g/ha) was 0 (Herbicidal rate of 5% or less (almost no effect)). The “herbicidal effect on I: wild oat (criteria 0-5)” value (wild oat [17]; 320 g/ha) was 0 (Herbicidal rate of 5% or less (almost no effect)), the “herbicidal effect on J: blackgrass (criteria 0-5)” value (blackgrass [18]; 320 g/ha) was 0 (Herbicidal rate of 5% or less (almost no effect)) and the “herbicidal effect on K: Italian ryegrass (criteria 0-5)” value (Italian ryegrass [19]; 320 g/ha) was 0 (Herbicidal rate of 5% or less (almost no effect)). For the same molecule, the “herbicidal effect on L: windgrass (criteria 0-5)” value (windgrass [20]; 320 g/ha) was 0 (Herbicidal rate of 5% or less (almost no effect)), the “herbicidal effect on M: velvetleaf (criteria 0-5)” value (velvetleaf [21]; 320 g/ha) was 3 (Herbicidal rate of 40% or more and less than 70%) and the “herbicidal effect on N: redroot pigweed (criteria 0-5)” value (redroot pigweed [22]; 320 g/ha) was 5 (Herbicidal rate of 90% or more (almost completely withered)). For the same molecule, the “herbicidal effect on O: lambsquarters (criteria 0-5)” value (lambsquarters [23]; 320 g/ha) was 4 (Herbicidal rate of 70% or more and less than 90%), the “herbicidal effect on P: chickweed (criteria 0-5)” value (chickweed [24]; 320 g/ha) was 5 (Herbicidal rate of 90% or more (almost completely withered)) and the “herbicidal effect on R: persian speedwell (criteria 0-5)” value (persian speedwell [25]; 320 g/ha) was 5 (Herbicidal rate of 90% or more (almost completely withered)).
